Reference: US7582483B2, “Method of detecting viable cells” (Fuji Electric Holdings Co., Ltd., priority 2004, dated 2009)

System: Escherichia coli
Assay: detection of viable microbes in solid food (namul of spinach) with added Escherichia coli, CFDA and Phenol Red solutions at various pH
Format: cell-based
Settings: pH 5 of the CFDA solution and the Phenol Red solution
Description: In a second example, detection of live microbes was conducted using solid food (namul of spinach) to which Escherichia coli were added. The treatment to extract the microbes from the solid food into liquid was carried out referring to “A Guide to Food Sanitation Test, Volume on Microorganisms” (in Japanese; published by Japan Food Hygiene Association, 1990). Ten grams of the solid food (namul of spinach) to which Escherichia coli (about 10^7) was added was aliquoted into a stomacher bag. (The stomacher bag is made of flexible plastic film such as polyethylene and sterilized by radiation. There is a compartment inside the stomacher bag created by a partition of non-woven fabric or a plastic film with a pore size of about 0.28 mm diameter, and a liquid component can be extracted excluding relatively large solid bodies from the compartment. The aliquot of the solid food is supplied with 90 mL of sterile phosphate buffer saline and crushed and dispersed using a stomacher. A stomacher is an apparatus for extracting live microbes contained in food to liquid. In the stomacher, the stomacher bag containing food is placed between a fixed plate and a paddle and the food is crushed and dispersed by squeezing the bag containing food while moving the paddle back and forth. […] Using the liquid, viable microbes were detected in a procedure similar to that in Example 1. […]

carboxyfluorescein diacetate [CFDA]
staining of viable microbes with the fluorescent dye: the viable microbes were not stained with the fluorescent dye
